# Measured values: patent US20250296938A1, “Compounds that Interact with the Ras Superfamily for the Treatment of Cancers, Inflammatory Diseases, Rasopathies, and Fibrotic Disease” (SHY Therapeutics, LLC, priority 2018, published 2025)
# Molecular target: T1, KRas G12D mutant (Homo sapiens, UniProt P01116, G12D)
# T1 construct: fused on or other part: His tag, used for capture on nickel-coated plates
# Test: Ras GTP binding domain inhibition assay (Cy3-GTP/Cy5-GTP competition)
# Conditions: at 20 μM, with SOS; read-out: KRas G12D mutant + SOS: % inh.
# Outline: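 Compounds tested at 20 μM or in serial dilution for IC50 against nickel-captured His-tagged GTPase, 3 hours at room temperature, with or without His-Sos GEF added for last hour. Fluorescent GTP then added at 100 nM for 45 minutes; wells washed, bound label measured by fluorescence.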
row,SMILES,inhibition at 20 µM [%]
1,Cn1ccnc1-c1nc(O)c(O)c(C(=O)NC2CCC2)n1 [drawing 960],26 to 50
2,Cn1ccnc1-c1nc(O)c(O)c(C(=O)N2CCCCC2)n1 [drawing 961],1 to 25
3,Cn1ccnc1-c1nc(O)c(O)c(C(=O)NC2CCCC2)n1 [drawing 962],26 to 50
4,Cn1ccnc1-c1nc(O)c(O)c(C(=O)N2CCCC2)n1 [drawing 963],1 to 25
5,CCN(CC)C(=O)c1nc(-c2nccn2C)nc(O)c1O [drawing 964],1 to 25
6,CC(C)NC(=O)c1nc(-c2nccn2C)nc(O)c1O [drawing 965],26 to 50
7,O=C(c1nc(-c2ccccn2)nc(O)c1O)N1CCCC1 [drawing 966],1 to 25
8,O=C(c1nc(-c2ccccn2)nc(O)c1O)N1CCc2ccccc2C1 [drawing 967],26 to 50
9,Oc1nc(-c2ncc3n2CCCC3)nc2c(-c3ccccn3)csc12 [drawing 968],51 to 75
10,Oc1nc(-c2ncc3ccccn23)nc2c(-c3ccccn3)csc12 [drawing 969],51 to 75
11,COC1CCN(c2nc(-c3nccn3C)nc3sc(-c4cnn(C)c4)c(-c4ccccc4)c23)C1 (stereo not drawn) [drawing 970],76 to 100
12,COc1ccc(-c2sc3nc(-c4nccn4C)nc(N4CCC(OC)C4)c3c2-c2ccccc2)cn1 (stereo not drawn) [drawing 971],51 to 75
13,COC1CCN(c2nc(-c3nccn3C)nc3sc(-c4ccnn4C)c(-c4ccccc4)c23)C1 (stereo not drawn) [drawing 972],51 to 75

# Same assay, conditions: at 20 μM, without SOS; read-out: KRas G12D mutant: % inh.
row,SMILES,inhibition at 20 µM [%]
1,Cn1ccnc1-c1nc(O)c(O)c(C(=O)NC2CCC2)n1 [drawing 960],51 to 75
2,Cn1ccnc1-c1nc(O)c(O)c(C(=O)N2CCCCC2)n1 [drawing 961],26 to 50
3,Cn1ccnc1-c1nc(O)c(O)c(C(=O)NC2CCCC2)n1 [drawing 962],51 to 75
4,Cn1ccnc1-c1nc(O)c(O)c(C(=O)N2CCCC2)n1 [drawing 963],26 to 50
5,CCN(CC)C(=O)c1nc(-c2nccn2C)nc(O)c1O [drawing 964],51 to 75
6,CC(C)NC(=O)c1nc(-c2nccn2C)nc(O)c1O [drawing 965],51 to 75
7,O=C(c1nc(-c2ccccn2)nc(O)c1O)N1CCCC1 [drawing 966],51 to 75
8,O=C(c1nc(-c2ccccn2)nc(O)c1O)N1CCc2ccccc2C1 [drawing 967],51 to 75
9,Oc1nc(-c2ncc3n2CCCC3)nc2c(-c3ccccn3)csc12 [drawing 968],51 to 75
10,Oc1nc(-c2ncc3ccccn23)nc2c(-c3ccccn3)csc12 [drawing 969],76 to 100
11,COC1CCN(c2nc(-c3nccn3C)nc3sc(-c4cnn(C)c4)c(-c4ccccc4)c23)C1 (stereo not drawn) [drawing 970],26 to 50
12,COc1ccc(-c2sc3nc(-c4nccn4C)nc(N4CCC(OC)C4)c3c2-c2ccccc2)cn1 (stereo not drawn) [drawing 971],26 to 50
13,COC1CCN(c2nc(-c3nccn3C)nc3sc(-c4ccnn4C)c(-c4ccccc4)c23)C1 (stereo not drawn) [drawing 972],51 to 75

# Molecular target: Rac-1 (Homo sapiens, UniProt P63000)
# Test: as above
# Conditions: with SOS, read-out: Rac-1 + SOS: % inh.
# Outline: (§1)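 First, His-tagged protein is coated on nickel wells overnight at 4 °C. Next, compound (20 μM single point or serial dilution) is added for 3 h at room temperature, with or without Sos exchange factor in the last hour. Finally, 100 nM labelled GTP binds for 45 min and retained signal is measured.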
row,SMILES,inhibition at 20 µM [%]
1,Cn1ccnc1-c1nc(O)c(O)c(C(=O)NC2CCC2)n1 [drawing 960],51 to 75
2,Cn1ccnc1-c1nc(O)c(O)c(C(=O)N2CCCCC2)n1 [drawing 961],1 to 25
3,Cn1ccnc1-c1nc(O)c(O)c(C(=O)NC2CCCC2)n1 [drawing 962],51 to 75
4,Cn1ccnc1-c1nc(O)c(O)c(C(=O)N2CCCC2)n1 [drawing 963],26 to 50
5,CCN(CC)C(=O)c1nc(-c2nccn2C)nc(O)c1O [drawing 964],1 to 25
6,CC(C)NC(=O)c1nc(-c2nccn2C)nc(O)c1O [drawing 965],51 to 75
7,O=C(c1nc(-c2ccccn2)nc(O)c1O)N1CCCC1 [drawing 966],26 to 50
8,O=C(c1nc(-c2ccccn2)nc(O)c1O)N1CCc2ccccc2C1 [drawing 967],51 to 75
9,Oc1nc(-c2ncc3n2CCCC3)nc2c(-c3ccccn3)csc12 [drawing 968],76 to 100
10,Oc1nc(-c2ncc3ccccn23)nc2c(-c3ccccn3)csc12 [drawing 969],76 to 100
11,COC1CCN(c2nc(-c3nccn3C)nc3sc(-c4cnn(C)c4)c(-c4ccccc4)c23)C1 (stereo not drawn) [drawing 970],0
12,COc1ccc(-c2sc3nc(-c4nccn4C)nc(N4CCC(OC)C4)c3c2-c2ccccc2)cn1 (stereo not drawn) [drawing 971],0
13,COC1CCN(c2nc(-c3nccn3C)nc3sc(-c4ccnn4C)c(-c4ccccc4)c23)C1 (stereo not drawn) [drawing 972],1 to 25

# Same assay, conditions: without SOS, read-out: Rac-1: % inh.
row,SMILES,inhibition at 20 µM [%]
1,Cn1ccnc1-c1nc(O)c(O)c(C(=O)NC2CCC2)n1 [drawing 960],76 to 100
2,Cn1ccnc1-c1nc(O)c(O)c(C(=O)N2CCCCC2)n1 [drawing 961],51 to 75
3,Cn1ccnc1-c1nc(O)c(O)c(C(=O)NC2CCCC2)n1 [drawing 962],51 to 75
4,Cn1ccnc1-c1nc(O)c(O)c(C(=O)N2CCCC2)n1 [drawing 963],51 to 75
5,CCN(CC)C(=O)c1nc(-c2nccn2C)nc(O)c1O [drawing 964],26 to 50
6,CC(C)NC(=O)c1nc(-c2nccn2C)nc(O)c1O [drawing 965],51 to 75
7,O=C(c1nc(-c2ccccn2)nc(O)c1O)N1CCCC1 [drawing 966],26 to 50
8,O=C(c1nc(-c2ccccn2)nc(O)c1O)N1CCc2ccccc2C1 [drawing 967],76 to 100
9,Oc1nc(-c2ncc3n2CCCC3)nc2c(-c3ccccn3)csc12 [drawing 968],51 to 75
10,Oc1nc(-c2ncc3ccccn23)nc2c(-c3ccccn3)csc12 [drawing 969],76 to 100
11,COC1CCN(c2nc(-c3nccn3C)nc3sc(-c4cnn(C)c4)c(-c4ccccc4)c23)C1 (stereo not drawn) [drawing 970],0
12,COc1ccc(-c2sc3nc(-c4nccn4C)nc(N4CCC(OC)C4)c3c2-c2ccccc2)cn1 (stereo not drawn) [drawing 971],0
13,COC1CCN(c2nc(-c3nccn3C)nc3sc(-c4ccnn4C)c(-c4ccccc4)c23)C1 (stereo not drawn) [drawing 972],26 to 50

# Molecular target: Rho-A (Homo sapiens, UniProt P61586)
# Test: as above
# Conditions: with SOS, read-out: Rho-A + SOS: % inh.
# Outline: as §1
row,SMILES,inhibition at 20 µM [%]
1,Cn1ccnc1-c1nc(O)c(O)c(C(=O)NC2CCC2)n1 [drawing 960],51 to 75
2,Cn1ccnc1-c1nc(O)c(O)c(C(=O)N2CCCCC2)n1 [drawing 961],51 to 75
3,Cn1ccnc1-c1nc(O)c(O)c(C(=O)NC2CCCC2)n1 [drawing 962],76 to 100
4,Cn1ccnc1-c1nc(O)c(O)c(C(=O)N2CCCC2)n1 [drawing 963],51 to 75
5,CCN(CC)C(=O)c1nc(-c2nccn2C)nc(O)c1O [drawing 964],51 to 75
6,CC(C)NC(=O)c1nc(-c2nccn2C)nc(O)c1O [drawing 965],76 to 100
7,O=C(c1nc(-c2ccccn2)nc(O)c1O)N1CCCC1 [drawing 966],51 to 75
8,O=C(c1nc(-c2ccccn2)nc(O)c1O)N1CCc2ccccc2C1 [drawing 967],76 to 100
9,Oc1nc(-c2ncc3n2CCCC3)nc2c(-c3ccccn3)csc12 [drawing 968],76 to 100
10,Oc1nc(-c2ncc3ccccn23)nc2c(-c3ccccn3)csc12 [drawing 969],76 to 100
11,COC1CCN(c2nc(-c3nccn3C)nc3sc(-c4cnn(C)c4)c(-c4ccccc4)c23)C1 (stereo not drawn) [drawing 970],76 to 100
12,COc1ccc(-c2sc3nc(-c4nccn4C)nc(N4CCC(OC)C4)c3c2-c2ccccc2)cn1 (stereo not drawn) [drawing 971],26 to 50
13,COC1CCN(c2nc(-c3nccn3C)nc3sc(-c4ccnn4C)c(-c4ccccc4)c23)C1 (stereo not drawn) [drawing 972],76 to 100

# Same assay, conditions: without SOS, read-out: Rho-A: % inh.
row,SMILES,inhibition at 20 µM [%]
1,Cn1ccnc1-c1nc(O)c(O)c(C(=O)NC2CCC2)n1 [drawing 960],26 to 50
2,Cn1ccnc1-c1nc(O)c(O)c(C(=O)N2CCCCC2)n1 [drawing 961],26 to 50
3,Cn1ccnc1-c1nc(O)c(O)c(C(=O)NC2CCCC2)n1 [drawing 962],26 to 50
4,Cn1ccnc1-c1nc(O)c(O)c(C(=O)N2CCCC2)n1 [drawing 963],1 to 25
5,CCN(CC)C(=O)c1nc(-c2nccn2C)nc(O)c1O [drawing 964],26 to 50
6,CC(C)NC(=O)c1nc(-c2nccn2C)nc(O)c1O [drawing 965],51 to 75
7,O=C(c1nc(-c2ccccn2)nc(O)c1O)N1CCCC1 [drawing 966],76 to 100
8,O=C(c1nc(-c2ccccn2)nc(O)c1O)N1CCc2ccccc2C1 [drawing 967],76 to 100
9,Oc1nc(-c2ncc3n2CCCC3)nc2c(-c3ccccn3)csc12 [drawing 968],26 to 50
10,Oc1nc(-c2ncc3ccccn23)nc2c(-c3ccccn3)csc12 [drawing 969],76 to 100
11,COC1CCN(c2nc(-c3nccn3C)nc3sc(-c4cnn(C)c4)c(-c4ccccc4)c23)C1 (stereo not drawn) [drawing 970],26 to 50
12,COc1ccc(-c2sc3nc(-c4nccn4C)nc(N4CCC(OC)C4)c3c2-c2ccccc2)cn1 (stereo not drawn) [drawing 971],51 to 75
13,COC1CCN(c2nc(-c3nccn3C)nc3sc(-c4ccnn4C)c(-c4ccccc4)c23)C1 (stereo not drawn) [drawing 972],51 to 75
